Measurements reported in patent US8993624B2, “Method of preventing and treating inflammatory diseases and disorders with abscisic acid” (Virginia Tech Intellectual Properties, Inc., priority 2010, dated 2015).

What was measured:
Influenza A/Udorn (H3N2) = experiment: Post-exposure ABA by gavage, Influenza A/Udorn challenge in mice; type: in vivo, mouse
NF-κB [1] = experiment: NF-κB reporter activity assay in RAW macrophages; settings: data not shown
[2] = system: LPS-induced splenic gene expression; experiment: LPS challenge in mice, spleen microarray and network analysis
Source text: Microarray data analysis—After homogenization of spleens, total RNA was extracted and purified using the RNAeasy system according to manufacturer's instructions (Qiagen Valencia, Calif.). The QIAGEN RNase-free DNase supplement kit was used to ensure that the RNA was free from DNA contamination. RNA was then processed and labeled according to the standard target labeling protocols and the samples were hybridized, stained, and scanned per standard Affymetrix protocols at VBI core laboratory on Mouse 430 2.0 expression arrays (Affymetrix Inc., Santa Clara, Calif.). All statistical analysis of the data was performed within the R statistical environment—Version 2.9.0 (24) using Bioconductor packages (25)]. Raw microarray data from CEL files were read with ‘affy’ package (26) and pre-processed by gcRMA algorithm (GC Robust Multiarray Average) that performs the three steps: (i) adjustment of the gene expression signal against the background caused by optical noise and non-specific binding, (ii) robust multi-array normalization (27), and (iii) summarization of the probes belonging to each probe set. Empirical Bayes adjustment was applied and p-values were corrected for multiple testing. […] The selected list of genes was analysed with hypergeometric testing that applies Fisher's exact test to find association between interesting genes and membership within the KEGG pathway(s).
The experiment followed a 2×2 factorial design with 2 factors: LPS and ABA, each with 2 levels: absence and presence. Thus there were four groups of mice: LPS & ABA, LPS & control, no LPS & control, no LPS & ABA. The design matrix, constructed in the package ‘limma’, defined coefficients for LPS main effect, ABA main effect and the interaction effect. […] These 43 probe sets were uploaded to IPA8.0 for Ingenuity Pathway Analysis (Ingenuity Systems, Redwood City, Calif.).

NFATc1 = NFATc1 activity in spleens of LPS-challenged mice; type: in vivo, mouse; settings: spleen
Procedure: NF-κB and NFAT activities—Spleens were diced into smaller pieces in lysis buffer containing dithiothreitol and a protease inhibitor cocktail and then further disrupted using a dounce ground glass homogenizer at 4° C. Nuclear extraction for tissue homogenate and BMM was performed using the Nuclear Extract kit (Active Motif, Carlsbad, Calif.) per the manufacturer's instructions. The extracts were used to perform a Bradford-based assay for quantifying the protein concentrations and stored at −80° C. NF-κB and NFATc1 activities were measured as previously described (13) by using the Trans-AM™ NF-κB p65 and the Trans-AM™ NFATc1 ELISA-based assays (Active Motif), respectively per the manufacturer's instructions.

macrophages = experiment: Intracellular cAMP in macrophages; type: cell-based, mouse; settings: 10 minutes
Procedure: Intracellular cAMP in CD3/CD28-stimulated splenocytes and LPS-stimulated macrophages—Spleens were excised from C57BL6/J mice under sterile conditions. Cells were released by disrupting the tissue between frosted glass slides and red blood cells were lysed with erythrocyte lysis buffer. Splenocytes were enumerated with a Coulter Counter (Beckman Coulter, Fullerton, Calif.) and seeded in cRPMI at 1×10^6/ml onto 24-well plates pre-coated with anti-mouse CD3 (5 μg/mL; BD Pharmingen) and anti-mouse CD28 (1 μg/mL; BD Pharmingen). […] For intracellular assessment of cAMP, cells were harvested into 0.1 M HCl and the lysates were collected. The cAMP concentration of the lysates was determined using an EIA kit (Assay Designs, Ann Arbor, Mich.).

NF-κB [3] = experiment: NF-κB reporter activity assay in 3T3-L1 cells
[4] = system: LPS-induced splenic gene expression; experiment: LPS challenge in mice, spleen real-time qRT-PCR
[5] = system: inactivated influenza virus PR8 antigens; experiment: Lymphocyte proliferation after influenza virus vaccination of mice; type: in vivo, mouse
[6] = system: LPS-stimulated bone marrow-derived macrophages; experiment: Inflammatory mediators in LPS-stimulated bone marrow-derived macrophages; type: cell-based, mouse; settings: ABA 2.5 μM, 12 hours
Procedure: Bone Marrow-derived Macrophage (BMM) Cultures—Bone marrow cells from PPAR γ flfl; MMTV-Cre− (flfl-Cre−) and flfl-Cre+ mice were cultured in DMEM with M-CSF (50 ng/ml) for 7 days. Fresh media with M-CSF was added on day 3. […] Following differentiation macrophages were directly stimulated with LPS (100 ng/ml) as previously described for 12 hours (21). ABA was added to macrophage cultures at a concentration of 2.5 μM. The effect of ABA on LPS/toll-like receptor-4 (TLR4)-mediated prostaglandin E2 (PGE2), leukotriene B4 (LTB4) and monocyte chemoattractant protein-1 (MCP-1) production by macrophages was examined in cell supernatants 12 hours following the LPS challenge by using a commercial PGE2 EIA kit (Cayman Chemicals), a LTB4 competitive binding assay (R&D Systems) and a MCP-1 ELISA (R&D Systems), respectively, per the manufacturer's instructions.

[7] = target: T1, ligand-binding domain of PPAR γ (Homo sapiens, UniProt P37231); experiment: PPAR γ ligand-binding assay (Polarscreen PPAR Competitor Assay, Green); settings: 0.001-10 μM, 4 hours
T1 construct: purchased Invitrogen
T1 sequence (P37231 238-503 limits assumed): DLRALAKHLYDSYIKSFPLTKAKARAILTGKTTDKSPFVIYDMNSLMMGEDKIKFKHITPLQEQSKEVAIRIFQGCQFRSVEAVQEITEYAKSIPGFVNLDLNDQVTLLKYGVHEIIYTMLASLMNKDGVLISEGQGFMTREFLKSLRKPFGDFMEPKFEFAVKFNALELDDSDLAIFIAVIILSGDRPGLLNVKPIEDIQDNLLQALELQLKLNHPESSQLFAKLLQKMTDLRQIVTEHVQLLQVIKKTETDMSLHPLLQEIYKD
Procedure: After 4 hours the ability of each compound to displace the fluorescent ligand, and therefore reduce the polarization values, was assessed using a fluorescent plate reader with 485 nm excitation and 535 nm emission. Results are a compilation of 4 independent experiments.

[8] = network analysis, LPS challenged mice
[9] = mice lacking PPAR γ in immune cells

SMILES: CC1=CC(=O)CC(C)(C)C1(O)/C=C/C(C)=C\C(=O)O (racemic) [ABA, abscisic acid]
- weight loss (Influenza A/Udorn (H3N2); 50 mg/kg): slightly suppressed weight loss, although the differences were not statistically significant
- weight loss and recovery (Influenza A/Udorn (H3N2); 100 mg/kg oral gavage once daily 10 days, from 4 hours post-infection): suppressed weight loss for both strains and accelerated recovery
- accumulation of pro-inflammatory tipDC in lung (Influenza A/Udorn (H3N2); 100 mg/kg, 7 dpi, FACS): lowered the accumulation of pro-inflammatory tipDC
- expression of MCP-1 in lungs (Influenza A/Udorn (H3N2); 3 and 7 dpi): lowered expression of MCP-1
- pulmonary angiopoietin like 4 (ANGIOPL4) mRNA expression (Influenza A/Udorn (H3N2); day 7 post-infection): upregulated
- pulmonary interleukin-10 (IL-10) mRNA expression (Influenza A/Udorn (H3N2); day 7 post-infection): upregulated
- pulmonary 5-LOX activating protein (FLAP) expression (Influenza A/Udorn (H3N2); day 10 post-infection): upregulation
- pulmonary 5-lipooxygenase (5-LOX) expression (Influenza A/Udorn (H3N2); day 10 post-infection): upregulation
- pulmonary LANCL2 expression (Influenza A/Udorn (H3N2); day 10 post-infection): upregulation
- pulmonary PPAR γ expression (Influenza A/Udorn (H3N2); day 10 post-infection): upregulation
- epithelial necrosis (Influenza A/Udorn (H3N2); lung, WT): ameliorated
- mucosal and submucosal inflammatory cell infiltration (Influenza A/Udorn (H3N2); lung, WT): ameliorated
- perivascular cuffing (Influenza A/Udorn (H3N2); lung, WT): ameliorated
- terminal airway infiltration (Influenza A/Udorn (H3N2); lung, WT): ameliorated
- beneficial effects on lung inflammatory lesions (Influenza A/Udorn (H3N2); mice lacking PPAR γ in myeloid cells (myeloid KO)): abrogated
- NF-κB reporter activity (NF-κB [1]): increased
- magnitude of LPS-modulated gene expression (fold-change) ([2]; 64 genes, spleen): attenuated
- ABA effect on LPS-induced gene expression ([2]; absence of functional immune cell PPAR γ): impaired (or abrogated)
- nuclear receptors (PPAR γ, PPAR α, RXRα, RXRβ) [2, 8]: up-regulation
- pro-inflammatory genes (IL-6, IL-1β, MIF and IFN-γ) [2, 8]: down-regulation
- expression of IL-6, IFN-γ, TNF-α induced protein 2 and chemokine ligand 11 ([2]; spleen, 6 hours post LPS): down-regulated
- LPS-mediated activation of NFATc1 (NFATc1): significantly decreased
- concentration at cAMP peak (macrophages): 2.5 µM
- cAMP peak over control (macrophages; 2.5 μM): 10%
- NF-κB reporter activity (NF-κB [3]): significantly suppressed
- iNOS mRNA expression ([4]; data not shown): no effect
- effects of ABA on splenic gene expression [4, 9]: abrogated
- NCOA6 mRNA expression ([4]; regardless of the LPS challenge): increased
- Glut4 mRNA ([4]; spleen, LPS challenge): mitigated the LPS-mediated suppression
- PPAR γ mRNA ([4]; spleen, LPS challenge): mitigated the LPS-mediated suppression
- TNF-α mRNA ([4]; spleen, LPS challenge): suppressed LPS-mediated up-regulation
- antigen-specific lymphoproliferative recall responses ([5]; ABA diet 100 mg/kg, days 14 and 21 post-vaccination): increased
- immunostimulatory effect on responses to influenza vaccination [5, 9]: attenuated
- PGE2 secretion ([6]; EIA): significantly suppressed
- MCP-1 secretion ([6]; ELISA): significantly suppressed
- ability to compete with the tracer for binding to the PPAR γ LBD [7]: not a PPAR γ ligand
